Laboratory results taken from ChEMBL document CHEMBL4359863, “Structure-guided development of purine amide, hydroxamate, and amidoxime for the inhibition of non-small cell lung cancer” (Eur J Med Chem, 2019).
Values belong to the molecule of their own block, whether it stands above or below them. Active and inactive are the calls of the source. No cut-off for these calls is given here.

Experiments:
Tubulin (Homo sapiens) [1] = target: T1, Tubulin (Homo sapiens) (UniProt P68371+Q9H4B7+P0DPH7+P68366+Q13509+Q71U36+P04350+Q3ZCM7+P07437+P68363+Q9BQE3+Q6PEY2+Q13885+Q9BVA1+Q9BUF5); assay: Induction of microtubule fragmentation in human NCI-H1975 cells at 50 nM incubated for 12 hrs by DAPI staining based laser confocal microscopic method; format: cell-based
[2] = target: Katanin p60 ATPase-containing subunit A1 (Homo sapiens) (UniProt O75449); assay: Binding affinity to katanin p60 in human NCI-H1975 cells using biotin labelled compound incubated for 16 hrs by streptavidin based immunoprecipitation method; format: cell-based
Tubulin (Homo sapiens) [3] = target: T1, Tubulin (Homo sapiens); assay: Induction of microtubule fragmentation in human NCI-H1975 cells at 140 nM incubated for 12 hrs by DAPI staining based laser confocal microscopic method; format: cell-based
NCI-H1975 = assay: Antiproliferative activity against human NCI-H1975 cells incubated for 48 hrs by celltiter-Glo assay; format: functional, cell-based; conditions: NCI-H1975, 48 h
Tubulin (Homo sapiens) [4] = target: T1, Tubulin (Homo sapiens); assay: Induction of microtubule fragmentation in human NCI-H1975 cells at 30 nM incubated for 12 hrs by DAPI staining based laser confocal microscopic method; format: cell-based

Katanin p60 ATPase-containing subunit A1 (Homo sapiens), sequence (O75449 whole entry, the tested form may be a part): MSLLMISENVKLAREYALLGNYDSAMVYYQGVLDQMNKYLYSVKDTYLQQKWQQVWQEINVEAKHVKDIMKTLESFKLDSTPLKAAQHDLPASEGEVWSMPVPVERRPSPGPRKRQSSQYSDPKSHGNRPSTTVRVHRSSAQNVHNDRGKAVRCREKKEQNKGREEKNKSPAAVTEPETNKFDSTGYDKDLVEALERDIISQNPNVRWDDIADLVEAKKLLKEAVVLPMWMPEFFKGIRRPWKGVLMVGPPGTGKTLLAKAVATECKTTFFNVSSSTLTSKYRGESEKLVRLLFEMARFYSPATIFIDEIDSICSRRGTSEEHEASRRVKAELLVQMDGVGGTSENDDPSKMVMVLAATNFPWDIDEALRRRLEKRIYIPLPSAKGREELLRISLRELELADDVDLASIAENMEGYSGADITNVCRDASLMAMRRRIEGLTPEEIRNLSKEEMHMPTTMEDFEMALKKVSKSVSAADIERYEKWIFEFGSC

Activity (Tubulin (Homo sapiens) [1]): Active
SMILES: CCOc1ccc(-c2nc(/C(N)=N/O)c3[nH]c(=O)n(-c4ccccc4OC)c3n2)cc1

Activity [2]: inactive
SMILES: CC(C)(C)OC(=O)NCCCCCNC(=O)CCCC[C@@H]1SC[C@@H]2NC(=O)N[C@@H]21

Activity [2]: Active
SMILES: CCOc1ccc(-c2nc(/C(N)=N/O)c3[nH]c(=O)n(-c4cccc(C(=O)NCCCCCNC(=O)CCCC[C@@H]5SC[C@@H]6NC(=O)N[C@@H]65)c4)c3n2)cc1

Activity (Tubulin (Homo sapiens) [3]): Active
SMILES: CCOc1ccc(-c2nc(C(=O)NO)c3[nH]c(=O)n(-c4ccccc4OC)c3n2)cc1

Activity [2]: Active
SMILES: CCOc1ccc(-c2nc(C(N)=O)c3[nH]c(=O)n(-c4cccc(C(=O)NCCCCCNC(=O)CCCC[C@@H]5SC[C@@H]6NC(=O)N[C@@H]65)c4)c3n2)cc1

IC50 (NCI-H1975): 7.6 µM
SMILES: COc1ccccc1-n1c(=O)[nH]c2c(C(N)=O)nc(-c3ccc4c(c3)OCO4)nc21

Activity (Tubulin (Homo sapiens) [4]): Active
SMILES: CCOc1ccc(-c2nc(C(N)=O)c3[nH]c(=O)n(-c4ccccc4OC)c3n2)cc1
